Test results as given in patent US20240101576A1, “HETEROCYCLIC INHIBITORS OF EGFR AND/OR HER2, FOR USE IN THE TREATMENT OF CANCER” (Scorpion Therapeutics, Inc., priority 2020, published 2024).

How the values were obtained:
Assay type in all cases: cell-based
[1] = biological target: T1, EGFR WT (Ba/F3 cells) (Homo sapiens, UniProt P00533); test: Inhibitor activity on EGFR-dependent cell growth (CellTiter-Glo, 72 h), Ba/F3 EGFR WT; conditions: read-out: BaF3 WT IC50
T1 construct: expressed in transfected cells; host or cells: Ba/F3 (murine pro-B cells), retroviral transduction, puromycin selection, maintained with EGF
T1 sequence (P00533 25-1210): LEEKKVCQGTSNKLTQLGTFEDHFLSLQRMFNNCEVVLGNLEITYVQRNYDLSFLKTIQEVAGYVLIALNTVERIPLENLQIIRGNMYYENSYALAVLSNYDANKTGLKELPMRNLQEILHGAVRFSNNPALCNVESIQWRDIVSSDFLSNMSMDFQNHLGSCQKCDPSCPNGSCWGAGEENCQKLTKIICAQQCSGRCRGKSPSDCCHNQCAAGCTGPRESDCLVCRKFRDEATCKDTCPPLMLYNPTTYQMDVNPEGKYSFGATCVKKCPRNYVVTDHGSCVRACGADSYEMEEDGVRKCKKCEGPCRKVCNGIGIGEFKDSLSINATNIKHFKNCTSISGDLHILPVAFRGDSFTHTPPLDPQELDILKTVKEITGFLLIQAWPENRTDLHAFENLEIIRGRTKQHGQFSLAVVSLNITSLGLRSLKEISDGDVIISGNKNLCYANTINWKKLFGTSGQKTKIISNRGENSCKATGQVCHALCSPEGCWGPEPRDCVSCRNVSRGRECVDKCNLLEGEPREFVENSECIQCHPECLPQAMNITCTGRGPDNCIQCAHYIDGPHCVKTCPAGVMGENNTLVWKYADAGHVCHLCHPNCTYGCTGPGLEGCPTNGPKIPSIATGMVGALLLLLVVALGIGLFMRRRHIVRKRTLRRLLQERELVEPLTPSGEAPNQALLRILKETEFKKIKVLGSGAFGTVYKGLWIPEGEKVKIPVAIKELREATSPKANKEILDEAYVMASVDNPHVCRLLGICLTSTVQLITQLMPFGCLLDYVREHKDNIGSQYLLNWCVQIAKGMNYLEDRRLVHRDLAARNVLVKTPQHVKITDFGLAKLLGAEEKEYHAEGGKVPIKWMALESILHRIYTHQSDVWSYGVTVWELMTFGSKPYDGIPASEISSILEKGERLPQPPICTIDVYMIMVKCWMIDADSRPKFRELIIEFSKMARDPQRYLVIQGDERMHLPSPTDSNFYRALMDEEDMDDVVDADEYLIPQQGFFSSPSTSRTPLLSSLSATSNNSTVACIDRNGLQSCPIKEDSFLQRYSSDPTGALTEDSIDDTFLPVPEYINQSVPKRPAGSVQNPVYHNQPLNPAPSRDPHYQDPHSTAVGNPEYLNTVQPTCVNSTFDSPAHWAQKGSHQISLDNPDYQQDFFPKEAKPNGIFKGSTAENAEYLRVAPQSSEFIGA
How it was run: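 This growth assay used Ba/F3 cells that depend on wild-type EGFR and are kept in EGF without IL3. Compounds were made up as 10 mM DMSO stocks and diluted 3-fold over 10 points. 120 nL went onto 600 cells/well. After 72 hours, 40 μL CellTiter-Glo was added and luminescence read on EnVision after 30 min.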

[2] = biological target: T2, EGFR exon 20 NPG Ins D770_N771 (Ba/F3 cells) (Homo sapiens, UniProt P00533, INS770NPG); test: Inhibitor activity on EGFR-dependent cell growth (CellTiter-Glo, 72 h), Ba/F3 EGFR exon 20 NPG Ins; conditions: read-out: BaF3 NPG IC50
T2 construct: expressed in transfected cells; host or cells: Ba/F3 (murine pro-B cells), retroviral transduction, puromycin selection, IL3-independent pool
T2 sequence (P00533 with tags, fused parts or gaps INS770NPG): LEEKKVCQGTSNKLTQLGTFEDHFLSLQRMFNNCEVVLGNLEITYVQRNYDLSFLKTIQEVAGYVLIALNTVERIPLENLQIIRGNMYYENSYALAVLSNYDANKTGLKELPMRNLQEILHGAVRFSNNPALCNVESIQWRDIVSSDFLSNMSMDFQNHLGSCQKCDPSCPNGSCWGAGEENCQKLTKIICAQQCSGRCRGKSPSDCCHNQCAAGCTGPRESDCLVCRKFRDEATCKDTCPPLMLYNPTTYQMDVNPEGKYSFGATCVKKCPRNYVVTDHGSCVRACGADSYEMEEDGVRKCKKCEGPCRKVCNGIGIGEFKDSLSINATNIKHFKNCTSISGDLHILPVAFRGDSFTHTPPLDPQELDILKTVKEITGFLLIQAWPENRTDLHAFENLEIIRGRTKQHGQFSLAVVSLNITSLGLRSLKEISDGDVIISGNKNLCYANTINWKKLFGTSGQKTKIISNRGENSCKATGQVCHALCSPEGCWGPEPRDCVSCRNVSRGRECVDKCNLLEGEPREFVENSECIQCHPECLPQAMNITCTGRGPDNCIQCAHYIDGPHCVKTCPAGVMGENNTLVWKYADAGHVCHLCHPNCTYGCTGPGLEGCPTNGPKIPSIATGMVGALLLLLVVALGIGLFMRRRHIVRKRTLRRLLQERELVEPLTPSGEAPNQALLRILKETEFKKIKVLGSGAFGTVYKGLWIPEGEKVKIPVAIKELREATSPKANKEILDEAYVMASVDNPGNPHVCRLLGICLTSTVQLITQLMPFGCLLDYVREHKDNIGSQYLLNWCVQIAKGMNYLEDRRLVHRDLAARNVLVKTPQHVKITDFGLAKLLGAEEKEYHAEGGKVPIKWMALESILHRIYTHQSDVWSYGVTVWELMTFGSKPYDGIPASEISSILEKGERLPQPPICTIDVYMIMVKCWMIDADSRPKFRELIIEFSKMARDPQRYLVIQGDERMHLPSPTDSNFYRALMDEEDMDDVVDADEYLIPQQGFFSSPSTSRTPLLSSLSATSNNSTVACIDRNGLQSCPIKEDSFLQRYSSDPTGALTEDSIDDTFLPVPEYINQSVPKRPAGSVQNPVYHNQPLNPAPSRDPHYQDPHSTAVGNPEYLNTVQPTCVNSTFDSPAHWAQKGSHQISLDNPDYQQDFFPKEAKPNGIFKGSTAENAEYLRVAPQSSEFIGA
Text: Example A. Inhibitor Activity on EGFR-Dependent Cell Growth
Cell lines are generated by transducing Ba/F3 cells with retroviruses containing vectors with EGFR WT, EGFR L858R, EGFR exon 19del, EGFR L858R/C797S, EGFR exon 20 NPG Ins D770_N771, EGFR exon 20 ASV Ins V769_D770, EGFR exon 20 SVD Ins D770_N771, or EGFR exon 20 FQEA Ins A763_V764 genes and a puromycin selection marker. Transduced cells are selected with puromycin for 7 days and are then be transferred into culture media without Interleukin 3 (IL3). EGFR WT cells are maintained with supplemental EGF. Surviving cells are confirmed to express EGFR by Western blot and maintained as a pool. The IC50 date were included in Table 6 and Table 7.
1.1 Cells are harvested from flask into cell culture medium and the cell number counted.
1.2 Cells are diluted with culture medium to the desired density and 40 μL of cell suspension is added into each well of 384-well cell culture plate and the seeding density is 800 (FQEA, exon 19del), 600 (WT, NPG, L858R/C797S), or 400 (ASV, SVD, L858R) cells/well.
2 Compound Preparation and Treatment
2.1 Test compounds are dissolved to 10 mM in a DMSO stock solution. 45 μL of stock solution is transferred to a 384 polypropylene plate (pp-plate). Perform 3-fold, 10-point dilution via transferring 15 μL compound into 30 μL DMSO using a TECAN (EVO200) liquid handler.
2.2 Spin plates at room temperature at 1,000 RPM for 1 minute.
2.3 Transfer 120 nL of diluted compound from compound source plate into the cell plate.
2.4 After compound treatment for 72 hours, perform CTG detection for compound treatment plates as described in “Detection” section.
3.1 Plates are removed from incubators and equilibrated at room temperature for 15 minutes.
3.2 Thaw the CellTiter Glo reagents and allow to equilibrate to room temperature before the experiment.
3.3 Add 40 μL of CellTiter-Glo reagent into each well (at 1:1 to culture medium). Then place the plates at room temperature for 30 min followed by reading on EnVision.
4.1 Inhibition activity is calculated following the formula below:
% Inhibition=100×(LumHC−LumSample)/(LumHC−LumLC) • where HC is obtained from cells treated with 0.1% DMSO only; and LC is obtained from culture medium only.
4.2 2. Calculate the IC50 by fitting the Curve using Xlfit (v5.3.1.3), equation 201.
Y=Bottom+(Top−Bottom)/(1+10^((Log IC50−X)*HillSlope))

[3] = biological target: T3, EGFR exon 20 ASV Ins V769_D770 (Ba/F3 cells) (Homo sapiens, UniProt P00533, INS769ASV); test: Inhibitor activity on EGFR-dependent cell growth (CellTiter-Glo, 72 h), Ba/F3 EGFR exon 20 ASV Ins; conditions: read-out: BaF3 ASV IC50
T3 construct: expressed in transfected cells; host or cells: Ba/F3 (murine pro-B cells), retroviral transduction, puromycin selection, IL3-independent pool
T3 sequence (P00533 with tags, fused parts or gaps INS769ASV): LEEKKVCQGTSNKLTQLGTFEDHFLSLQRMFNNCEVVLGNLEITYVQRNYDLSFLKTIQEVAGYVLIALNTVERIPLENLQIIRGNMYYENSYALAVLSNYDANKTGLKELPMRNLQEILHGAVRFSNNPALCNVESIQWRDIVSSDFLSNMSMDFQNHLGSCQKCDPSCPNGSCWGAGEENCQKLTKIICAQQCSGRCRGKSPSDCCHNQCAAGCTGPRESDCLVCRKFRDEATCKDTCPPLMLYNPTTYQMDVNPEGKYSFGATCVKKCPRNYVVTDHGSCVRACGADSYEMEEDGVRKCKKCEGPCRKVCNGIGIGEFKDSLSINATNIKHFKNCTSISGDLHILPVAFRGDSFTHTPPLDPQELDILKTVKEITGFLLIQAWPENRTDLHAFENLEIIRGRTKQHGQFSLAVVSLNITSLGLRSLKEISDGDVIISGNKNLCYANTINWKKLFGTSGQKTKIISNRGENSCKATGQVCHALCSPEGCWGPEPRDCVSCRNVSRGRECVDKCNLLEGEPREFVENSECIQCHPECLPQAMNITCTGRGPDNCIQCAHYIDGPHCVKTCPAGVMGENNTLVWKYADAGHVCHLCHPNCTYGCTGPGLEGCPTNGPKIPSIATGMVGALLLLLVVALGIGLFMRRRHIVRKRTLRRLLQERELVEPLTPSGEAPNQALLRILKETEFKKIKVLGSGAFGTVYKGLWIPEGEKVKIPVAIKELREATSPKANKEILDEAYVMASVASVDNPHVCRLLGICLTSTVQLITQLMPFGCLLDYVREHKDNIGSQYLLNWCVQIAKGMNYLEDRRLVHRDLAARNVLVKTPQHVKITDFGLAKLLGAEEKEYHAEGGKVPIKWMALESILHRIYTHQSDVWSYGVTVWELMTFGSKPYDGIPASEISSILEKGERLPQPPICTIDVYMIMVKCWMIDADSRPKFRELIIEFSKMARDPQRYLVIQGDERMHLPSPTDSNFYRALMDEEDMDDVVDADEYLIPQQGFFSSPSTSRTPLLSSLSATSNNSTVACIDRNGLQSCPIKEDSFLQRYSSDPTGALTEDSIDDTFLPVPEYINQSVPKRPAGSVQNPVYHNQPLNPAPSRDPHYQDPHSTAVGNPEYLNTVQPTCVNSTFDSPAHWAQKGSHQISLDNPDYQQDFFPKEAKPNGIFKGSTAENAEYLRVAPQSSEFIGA
How it was run: (§1)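 IC50s derive from a sigmoidal dose–response fit of CellTiter-Glo signal. The signal was normalised between […]-treated cells and cell-free medium. Ba/F3 mutant-EGFR cells, seeded at 400–800/well depending on the line, had 72 h of exposure to a 10-point, 3-fold compound series.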

[4] = biological target: T4, EGFR exon 20 SVD Ins D770_N771 (Ba/F3 cells) (Homo sapiens, UniProt P00533, INS770SVD); test: Inhibitor activity on EGFR-dependent cell growth (CellTiter-Glo, 72 h), Ba/F3 EGFR exon 20 SVD Ins; conditions: read-out: BaF3 SVD IC50
T4 construct: expressed in transfected cells; host or cells: Ba/F3 (murine pro-B cells), retroviral transduction, puromycin selection, IL3-independent pool
T4 sequence (P00533 with tags, fused parts or gaps INS770SVD): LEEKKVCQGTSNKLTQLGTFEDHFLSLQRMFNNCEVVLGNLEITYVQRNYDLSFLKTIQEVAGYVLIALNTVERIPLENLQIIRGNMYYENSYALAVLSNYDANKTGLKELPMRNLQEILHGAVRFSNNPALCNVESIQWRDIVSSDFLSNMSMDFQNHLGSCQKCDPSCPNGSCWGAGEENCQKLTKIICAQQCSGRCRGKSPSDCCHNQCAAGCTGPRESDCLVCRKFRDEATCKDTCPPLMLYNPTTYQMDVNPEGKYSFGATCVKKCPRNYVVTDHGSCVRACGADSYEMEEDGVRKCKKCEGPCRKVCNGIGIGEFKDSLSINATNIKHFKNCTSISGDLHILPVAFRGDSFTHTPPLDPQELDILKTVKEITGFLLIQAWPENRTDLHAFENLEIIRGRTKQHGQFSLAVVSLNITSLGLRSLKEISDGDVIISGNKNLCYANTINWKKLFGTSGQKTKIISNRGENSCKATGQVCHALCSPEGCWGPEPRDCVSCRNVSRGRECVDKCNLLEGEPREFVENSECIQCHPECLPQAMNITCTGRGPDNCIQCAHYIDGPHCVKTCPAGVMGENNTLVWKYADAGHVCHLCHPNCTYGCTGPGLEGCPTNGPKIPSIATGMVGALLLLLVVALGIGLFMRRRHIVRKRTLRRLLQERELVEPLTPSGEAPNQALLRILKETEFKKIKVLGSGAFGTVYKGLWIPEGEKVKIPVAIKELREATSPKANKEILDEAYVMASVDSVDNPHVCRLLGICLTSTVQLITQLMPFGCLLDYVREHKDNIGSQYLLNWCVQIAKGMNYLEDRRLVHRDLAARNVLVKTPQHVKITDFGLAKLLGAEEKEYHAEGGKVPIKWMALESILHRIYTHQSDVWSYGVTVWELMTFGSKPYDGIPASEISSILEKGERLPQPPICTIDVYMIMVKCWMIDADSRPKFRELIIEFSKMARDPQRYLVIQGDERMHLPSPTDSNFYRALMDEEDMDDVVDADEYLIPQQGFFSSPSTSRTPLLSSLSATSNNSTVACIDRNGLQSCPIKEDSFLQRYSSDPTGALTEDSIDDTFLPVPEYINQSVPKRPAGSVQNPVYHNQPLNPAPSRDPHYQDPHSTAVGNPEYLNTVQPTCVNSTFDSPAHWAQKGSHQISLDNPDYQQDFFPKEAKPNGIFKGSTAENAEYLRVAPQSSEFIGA
How it was run: as §1

SMILES | IC50 [1] [nM] | IC50 [2] [nM] | IC50 [3] [nM] | IC50 [4] [nM]
C=CC(=O)N1CCC2(CC1)CNC(=O)c1c2[nH]c(-c2ccncc2F)c1Nc1cccc(Cl)c1Cl [Compound 589, 3′-[(2,3-dichlorophenyl)amino]-2′-(3-fluoropyridin-4-yl)-1-(prop-2-enoyl)-5′,6′-dihydro-1′H-spiro[piperidine-4,7′-pyrrolo[3,2-c]pyridin]-4′-one] | 100 to 1000 | < 100 | < 100 | < 100
C=CC(=O)N1CCC2(CC1)CNC(=O)c1c2[nH]c(-c2ccncc2F)c1Nc1ccc(Cl)c(Cl)c1 [Compound 590, 3′-[(3,4-dichlorophenyl)amino]-2′-(3-fluoropyridin-4-yl)-1-(prop-2-enoyl)-5′,6′-dihydro-1′H-spiro[piperidine-4,7′-pyrrolo[3,2-c]pyridin]-4′-one] | > 1000 | 100 to 1000 | > 1000 | > 1000
COc1c(F)cccc1Nc1c(-c2ccnc(Nc3cnnn3C)n2)[nH]c2c1C(=O)NCC2 [compound 591, 3-[(3-fluoro-2-methoxyphenyl)amino]-2-{2-[(3-methyl-1,2,3-triazol-4-yl)amino]pyrimidin-4-yl}-1H,5H,6H,7H-pyrrolo[3,2-c]pyridin-4-one] | 100 to 1000 | < 100 | < 100 | < 100
CNC(=O)N1CC[C@@]2(CNC(=O)c3c2[nH]c(-c2ccncc2F)c3Nc2cccc(Cl)c2OC)C1 [Compound 499, (3R)-3′-[(3-chloro-2-methoxyphenyl)amino]-2′-(3-fluoropyridin-4-yl)-N-methyl-4′-oxo-5′,6′-dihydro-1′H-spiro[pyrrolidine-3,7′-pyrrolo[3,2-c]pyridine]-1-carboxamide] | > 1000 | > 1000 | > 1000 | > 1000
COc1c(Cl)cccc1Nc1c(-c2ccnc(-c3cnn(C)c3)n2)[nH]c2c1C(=O)NCC2 [compound 121] | 100 to 1000 | < 100 | < 100 | < 100
C=CC(=O)N1CCC2(CC1)CNC(=O)c1c2[nH]c(-c2ccnc(C)n2)c1Nc1cc(F)cc(Cl)c1OC [compound 642] | 100 to 1000 | < 100 | < 100 | < 100
COc1c(Cl)cccc1Nc1c(-c2ccnc(C)n2)[nH]c2c(C[C@H]3COCCO3)c[nH]c(=O)c12 [compound 659] | > 1000 | < 100 | < 100 | < 100
COc1ncc2nccc(-c3[nH]c4c(c3Nc3cccc(F)c3OC)C(=O)NC(C(F)(F)F)C4)c2n1 (stereo not shown) [Compound 595, 3-[(3-fluoro-2-methoxyphenyl)amino]-2-{2-methoxypyrido[3,2-d]pyrimidin-8-yl}-6-(trifluoromethyl)-1H,5H,6H,7H-pyrrolo[3,2-c]pyridin-4-one] | 100 to 1000 | 100 to 1000 | 100 to 1000 | 100 to 1000
COC(=O)N1CCC2(CNC(=O)c3c2[nH]c(-c2ccncc2F)c3Nc2cccc(Cl)c2OC)C1 (single isomer, unassigned) [Compound 497] | 100 to 1000 | < 100 | 100 to 1000 | 100 to 1000
C=CC(=O)N1CCC2(CC1)CNC(=O)c1c2[nH]c(-c2ccncc2F)c1Nc1ccc(F)c(Cl)c1 [Compound 587, 3′-[(3-chloro-4-fluorophenyl)amino]-2′-(3-fluoropyridin-4-yl)-1-(prop-2-enoyl)-5′,6′-dihydro-1′H-spiro[piperidine-4,7′-pyrrolo[3,2-c]pyridin]-4′-one] | 100 to 1000 | < 100 | < 100 | < 100
COc1c(F)cccc1Nc1c(-c2ccnc3cnc(N4CCN(C(=O)/C=C/CN(C)C)CC4)nc23)[nH]c2c1C(=O)NCC2 [Compound 577, 2-(2-{4-[(2E)-4-(dimethylamino)but-2-enoyl]piperazin-1-yl}pyrido[3,2-d]pyrimidin-8-yl)-3-[(3-fluoro-2-methoxyphenyl)amino]-1H,5H,6H,7H-pyrrolo[3,2-c]pyridin-4-one] | 100 to 1000 | < 100 | < 100 | < 100
COc1c(F)cccc1Nc1c(-c2ccnc(C)n2)[nH]c2c1C(=O)NCC2C[C@@H]1COCCO1 (single isomer, unassigned) [Compound 605] | > 1000 | 100 to 1000 | 100 to 1000 | 100 to 1000
C=CC(=O)N1CCC2(CC1)CNC(=O)c1c2[nH]c(-c2ccncc2F)c1Nc1cccc(Cl)c1CC [Compound 558, 3′-[(3-chloro-2-ethylphenyl)amino]-2′-(3-fluoropyridin-4-yl)-1-(prop-2-enoyl)-5′,6′-dihydro-1′H-spiro[piperidine-4,7′-pyrrolo[3,2-c]pyridin]-4′-one] | < 100 | < 100 | < 100 | < 100
COc1c(Cl)cccc1Nc1c(-c2ccnc(-c3cnn(C)n3)n2)[nH]c2c1C(=O)NCC2 [compound 543, 3-[(3-chloro-2-methoxyphenyl)amino]-2-[2-(2-methyl-1,2,3-triazol-4-yl)pyrimidin-4-yl]-1H,5H,6H,7H-pyrrolo[3,2-c]pyridin-4-one] | > 1000 | < 100 | 100 to 1000 | < 100
COc1c(F)cccc1Nc1c(-c2ccncn2)[nH]c2c1C(=O)NC[C@@H]2C[C@@H]1COCCO1 [Compound 529, (7S)-7-[(2R)-1,4-dioxan-2-ylmethyl]-3-[(3-fluoro-2-methoxyphenyl)amino]-2-(pyrimidin-4-yl)-1H,5H,6H,7H-pyrrolo[3,2-c]pyridin-4-one] | > 1000 | 100 to 1000 | 100 to 1000 | 100 to 1000
CC#CC(=O)N1CCC2(CC1)CNC(=O)c1c2[nH]c(-c2ccncc2F)c1Nc1cccc(Cl)c1OC [Compound 555, 1-(but-2-ynoyl)-3′-[(3-chloro-2-methoxyphenyl)amino]-2′-(3-fluoropyridin-4-yl)-5′,6′-dihydro-1′H-spiro[piperidine-4,7′-pyrrolo[3,2-c]pyridin]-4′-one] | > 1000 | > 1000 | > 1000 | > 1000
C=CC(=O)N1CCC2(CC1)CNC(=O)c1c2[nH]c(-c2ccncc2F)c1Nc1cccc(Br)c1OC [Compound 561, 3′-[(3-bromo-2-methoxyphenyl)amino]-2′-(3-fluoropyridin-4-yl)-1-(prop-2-enoyl)-5′,6′-dihydro-1′H-spiro[piperidine-4,7′-pyrrolo[3,2-c]pyridin]-4′-one] | 100 to 1000 | < 100 | < 100 | < 100
C=CC(=O)N1CCC2(CC1)CNC(=O)c1c2[nH]c(-c2ccncc2F)c1Nc1ccc(Cl)c(F)c1 [Compound 588, 3′-[(4-chloro-3-fluorophenyl)amino]-2′-(3-fluoropyridin-4-yl)-1-(prop-2-enoyl)-5′,6′-dihydro-1′H-spiro[piperidine-4,7′-pyrrolo[3,2-c]pyridin]-4′-one] | < 100 | < 100 | < 100 | < 100
CCn1cc(Nc2nccc(-c3[nH]c4c(c3Nc3cccc(Cl)c3OC)C(=O)NCC4)n2)nn1 [Compound 594, 3-[(3-chloro-2-methoxyphenyl)amino]-2-{2-[(1-ethyl-1,2,3-triazol-4-yl)amino]pyrimidin-4-yl}-1H,5H,6H,7H-pyrrolo[3,2-c]pyridin-4-one] | 100 to 1000 | < 100 | < 100 | < 100
